From patent US20170354726A1, “CANCER PEPTIDE VACCINE” (Green Peptide Co., Ltd., priority 2010, published 2017)
Ends that are not written are not given here.

How the values were obtained:
Format in all cases: in vivo, human
[1] = test system: antibody to a peptide in the peripheral blood of glioblastoma patients; assay: Antibody to peptide in plasma (FIU, Luminex) of glioblastoma patients; details: brain tumor, patients given this peptide
Procedure: (§1) An antibody to a peptide in the peripheral blood of patient was measured using a multiplex technology provided by Luminex Corporation by a method as described in Japanese Patent No. 3960614 (incorporated herein by reference) using each of the powdered peptides of SEQ ID NOS: 1 to 14. More specifically, a carrier was prepared in which each peptide was immobilized on the surface of micro beads (Luminex Corporation) after dissolving the powdered peptide in DMSO. Subsequently, plasma (heparin blood) obtained by blood collection from the patient was mixed with the immobilized carrier to react the antibody contained in the plasma with the peptide immobilized on the carrier. Then, the immobilized carrier was recovered after reaction; the antibody in the peripheral blood of the patient, bound to the peptide on the support was fluorescently labeled using a biotinylated anti-human antibody (Vector Corporation) and an avidinylated fluorescent dye (Streptavidin-PE, Invitrogen Corporation); and the fluorescence intensity (FIU) thereof was measured.
(§2) Similarly, for glioblastoma patients, the average of IFN-γ values or FIU was calculated in the 1 mg administration group (level I) and the 3 mg administration group (level II) to analyze the relationship between the dose and the immunological response.
(§3) Similarly, for glioblastoma patients, the averages of IFN-γ values and FIU obtained from the plasma or PBMC obtained at the end of each course from before administration to the 2nd course were calculated in the 1 mg administration group (level I) and the group of administration of 3 mg or more (level II) to analyze the relationship between the number of times of administration and the immunological response. The “Number of times of administration” in the table and the figure is the total number of times of administration at the end of each course, and the number of times of administration per course is 6.

[2] = test system: antibody to a peptide in the peripheral blood of HRPC patients; assay: Antibody to peptide in plasma (FIU, Luminex) of HRPC patients; details: prostate cancer, patients given this peptide
Procedure: as §1, with “More” for “An antibody to a peptide in the peripheral blood of patient was measured using a multiplex technology provided by Luminex Corporation by a method as described in Japanese Patent No. 3960614 (incorporated herein by reference) using each of the powdered peptides of SEQ ID NOS: 1 to 14. More”
(§4) For HRPC patients, the average of IFN-γ values or FIU was calculated in the 1 mg administration group (level I), the 3 mg administration group (level II), and the 5 mg administration group (level III) to analyze the relationship between the dose and the immunological response.
(§5) For HRPC patients, the averages of IFN-γ values and FIU obtained from the plasma or PBMC obtained at the end of each course from before administration to the 6th course were calculated in the 1 mg administration group and the group of administration of 3 mg or more to analyze the relationship between the number of times of administration and the immunological response. The “Number of times of administration” in the table and the figure is the total number of times of administration at the end of each course, and the number of times of administration per course is 6.

[3] = test system: CTL in PBMC of glioblastoma patients, HLA-A24 positive target cells presenting the administered peptide; assay: Measurement of CTL activity (IFN-γ) in PBMC of glioblastoma patients; details: brain tumor; for CTL (IFN) Post Average: patients given this peptide
Procedure: (§6) PBMC was separated from the peripheral blood obtained by blood collection at the start of administration and at the end of each course for lyophilization, and CTL activity was measured using all PBMC by a known method (Hida N, Maeda Y, Katagiri K, Takasu H, Harada M, Itoh K., A simple culture protocol to detect peptide-specific cytotoxic T lymphocyte precursors in circulation. Cancer Immunol Immunotherapy 2002; 51: 219-228 (incorporated herein by reference)) after the end of administration. First, PBMC was cultured in the presence of each administered peptide for 2 weeks, and the PBMC was co-cultured with HLA-A24 positive target cells presenting the administered peptide via HLA molecules. Then, CTL activity was measured by measuring IFN-γ secreted into the culture supernatant by the reaction of CTL in PBMC with the target cells. The co-culture was performed under 4 independent conditions for each peptide; 4 values were obtained for each peptide for each PBMC obtained by each blood collection; and the total of the 4 values was used as a value (pg/mL) of IFN-γ for analysis to be described later.
as §2, §3

[4] = test system: CTL in PBMC of HRPC patients, HLA-A24 positive target cells presenting the administered peptide; assay: Measurement of CTL activity (IFN-γ) in PBMC of HRPC patients; details: for reactivity of CTL (and antibody) to the peptide, in words: HRPC patients; for IFN post average/average no. of times of administration / CTL (IFN) Post Average: prostate cancer; for CTL (IFN) Post Average: patients given this peptide
Procedure: as §6, §4, §5
Since the initial peptide reselection was performed at the end of the 1st course, the averages of measurements after the reselection (values measured at the end of the 2nd course and later) are shown in the table and the figure. The “Number of times of administration” in the table and the figure is the total number of times of administration at the end of each course, and the number of times of administration per course is 6.

Sequence	Ab Post Average (FIU after peptide administration) [1]	Ab Post Average (FIU after peptide administration) [2]	IFN post average/average no. of times of administration [3]	CTL (IFN) Post Average [3]	reactivity of CTL (and antibody) to the peptide, in words [4]	IFN post average/average no. of times of administration [4]	CTL (IFN) Post Average [4]
AYDFLYNYL [GP-113]	67 FIU	207 FIU	357	5,139 pg/mL	low values of CTL activation	67	600 pg/mL
DYLRSVLEDF [GP-105]	3,969 FIU	13,096 FIU	180	2,706 pg/mL		229	5,274 pg/mL
DYSARWNEI [GP-112]	1,338 FIU	53 FIU	92	1,308 pg/mL	low values of CTL activation	76	459 pg/mL
DYVREHKDNI [GP-101]		16,491 FIU			lower in the CTL reactivity than other peptides	7	129 pg/mL
HYRKWIKDTI [GP-109]		11,672 FIU			lowly increased the CTL activity	22	494 pg/mL
HYTNASDGL [GP-103]		22 FIU			did not increase the reactivity of antibody and CTL	8	100 pg/mL
LYAWEPSFL [GP-106]	297 FIU	20,080 FIU	174	3,134 pg/mL		841	22,699 pg/mL
LYCESVHNF [GP-108]		19,039 FIU				72	2,209 pg/mL
NYSVRYRPGL [GP-107]	302 FIU	2,888 FIU	8	151 pg/mL	lowly increased the CTL activity	27	370 pg/mL
RYLTQETNKV [GP-111]	241 FIU	11,125 FIU	400	3,001 pg/mL		207	5,576 pg/mL
TFDYLRSVL [GP-104]	920 FIU	11,538 FIU	187	2,986 pg/mL		144	3,629 pg/mL
TYSVSFDSL [GP-110]		310 FIU			increased the CTL value	365	2,190 pg/mL
VYDYNCHVDL [GP-114]	297 FIU	10,557 FIU	82	821 pg/mL		547	4,592 pg/mL
